According to article PMC12010006, “Subnanomolar MAS-related G protein-coupled receptor-X2/B2 antagonists with efficacy in human mast cells and disease models” (Signal Transduction and Targeted Therapy, 2025):

Legend:
Format in all cases: cell-based
[1] = biological target: T1, MRGPRX2 (Homo sapiens, UniProt Q96LB1); assay: β-arrestin recruitment assay (antagonist mode), β-arrestin-CHO cells recombinantly expressing MRGPRX2; parameters: expressed in transfected cells; conditions: for Ki: versus CST-14 (EC80 1,000 nM, EC50 483 nM), Cheng-Prusoff, read-out: β-Arrestin assay Ki ± SEM
T1 sequence (Q96LB1 1-330): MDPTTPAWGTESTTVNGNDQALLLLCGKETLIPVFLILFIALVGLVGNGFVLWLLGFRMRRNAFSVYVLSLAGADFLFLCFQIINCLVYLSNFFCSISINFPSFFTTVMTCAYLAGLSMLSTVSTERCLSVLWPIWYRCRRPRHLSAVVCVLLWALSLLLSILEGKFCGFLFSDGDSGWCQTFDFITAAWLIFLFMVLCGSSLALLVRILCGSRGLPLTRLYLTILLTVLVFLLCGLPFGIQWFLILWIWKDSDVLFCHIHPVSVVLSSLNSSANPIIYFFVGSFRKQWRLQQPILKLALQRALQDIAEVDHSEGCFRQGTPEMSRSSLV

[2] = biological target: T1, MRGPRX2; assay: β-arrestin assay (agonist mode), β-arrestin CHO cells recombinantly expressing MRGPRX2; conditions: for EC50: agonist test, read-out: β-Arrestin assay EC50 ± SEM; for β-Arrestin assay % activation: normalized to CST-14 (EC80 5,000 nM)
Excerpt: Eurofins DiscoverX (Fremont, CA, USA) provided engineered Chinese hamster ovary (CHO) cells stably expressing β-arrestin-2 fused to a large β-galactosidase fragment (enzyme acceptor, EA). These CHO-K1-β-arrestin-2 cells were commercially available (93-0164). CHO-K1-β-arrestin-2 cells that additionally expressed MRGPRX1, -2, or -4 fused to the fragment ProLink™ (PK) were also purchased from the same company (93-0919C2, 93-0309C2, and 3-0541C2A, respectively). CHO cells expressing MRGPRX3 were generated as previously […].[31] The cells were grown in F-12 Ham Nutrient Mixture (Life Technologies) supplemented with 10% FBS, 100 U/mL of penicillin, 100 µg/mL of streptomycin (PAN-Biotech), 300 μg/mL of hygromycin B (PAN-Biotech), and 800 μg/mL of gentamicin (PAN-Biotech) at 37 °C and 5% CO2.).
The assays were carried out as previously described.[22] […] After 30 min of incubation at 37 °C and 5% CO2, Cortistatin-14 (CST-14, Bioscience, Bristol, United Kingdom) or another MRGPRX2 agonist that served as a standard agonist was added, and the mixture was incubated for 90 min at 37 °C and 5% CO2. Next, a detection reagent (50 µL, DiscoverX) was added, and the mixture was incubated at room temperature in the dark for 60 min. Chemiluminescence was measured on a Mithras LB 940 plate reader (Berthold Technologies, Bad Wildbad, Germany). The results represent means ± SEM of three to five independent experiments, each in duplicates.
^d β-Arrestin CHO cells recombinantly expressing MRGPRX2
^f Percentage of activation of normalized to CST-14 (EC80 5,000 nM)

[3] = biological target: T1, MRGPRX2; assay: Ca2+ mobilization assay, LN229 cells overexpressing MRGPRX2; parameters: expressed in transfected cells; host or cells: LN229 human glioblastoma cells; plasmid pLXSN-MRGPRX2 (Addgene #213960); conditions: for Ki: versus CST-14 (EC80 800 nM, EC50 452 nM), Cheng-Prusoff, read-out: Ca2+ assay Ki ± SEM; for MRGPRX2 antagonistic potency in Ca2+ assay, in words: versus CST-14
Procedure: Glioblastoma LN229-MRGPRX2 stably expressing MRGPRX2 (produced by retroviral transfection) were seeded into black sterile 96-well microplates at a density of 5 × 10^4 cells/well in 200 µL of DMEM/F12-Nut Mix medium, supplemented with 10% FCS, 100 U/mL of penicillin 100 µg/mL of streptomycin, and 200 µg/mL of G418 and incubated for 18–22 h.
The next day Fluo-4 AM Solution (1 mM) (Thermo Fisher Scientific) was prepared and used to prepare cell loading dye solution consisting of 4970 µL of Hank’s Buffered Saline Solution (HBSS) buffer, 15 µL of 20% Pluronic-F and 15 µL of 1 mM Fluo-4 AM. Next, the cell medium was removed and exchanged for 40 µL of dye solution per well (final concentration of Fluo-4 AM: 3 µM). The cell plate was incubated for 60 min in the dark at room temperature, then the dye solution was removed and replaced by 189 µL HBSS. Subsequently, 1 µL of antagonist diluted in DMSO was added and incubated for 30 min at room temperature and in the dark (final DMSO concentration 0.5%, v/v). CST-14 or another agonist prepared in HBSS as well as carbachol (final concentration 100 µM) were pipetted (10 µL) using a FlexStation® 3 Multi-Mode Microplate Reader. For the determination of baseline fluorescence, HBSS buffer containing solvent of the investigated compound was used. Fluorescence was measured for 120 intervals of 1 s (number of flashes: 10) at a wavelength of 525 nm (excitation 485 nm) using the SoftMax® Pro5.1 Microplate Data Acquisition & Analysis Software. Three independent experiments were performed in duplicates. Measurements are provided in relative fluorescence units and normalized to the maximal effect of CST-14.

Row | SMILES | EC50 [2] | β-Arrestin assay % activation [2] | Ki [1] | Ki [3] | other results
1 | CN(C)[C@@H]1CCN(c2cc(-c3ccccc3)nc3ccnn23)C1 [(R)-ZINC-3573, reference compound] | – | – | – | – | EC80 of agonist, β-arrestin assay [1]: 2000 nM; EC50 ([1]; without antagonist, read-out: EC50 of (R)-ZINC-3573, shift assay): 2020 ± 333 nM
2 | CCc1c(C)[nH]c2nc3ccccc3n2c1=O [Compound 2] | > 10000 nM | -2% | 1050 nM | 238 nM | –
3 | Cc1[nH]c2nc3ccccc3n2c(=O)c1C [Compound 3] | > 10000 nM | 1% | 3780 nM | 1040 nM | fold decrease in potency ([3]; 3-methyl compared to 3-ethyl (2)): 4 fold
4 | Cc1cc(=O)n2c(nc3ccccc32)[nH]1 [Compound 4] | > 10000 nM | 0% | – | – | –
5 | O=c1cc[nH]c2nc3ccccc3n12 [Compound 5, benzo[4,5]imidazo[1,2-α]pyrimidin-4(1H)-one] | > 10000 nM | -1% | – | – | –
6 | CCCc1cc(=O)n2c(nc3ccccc32)[nH]1 [Compound 6, 2-Propylbenzo[4,5]imidazo[1,2-a]pyrimidin-4(1H)-one] | > 10000 nM | 1% | 4790 nM | 4730 nM | –
7 | CC(C)c1cc(=O)n2c(nc3ccccc32)[nH]1 [Compound 7] | > 10000 nM | 0% | 1050 nM | 4260 nM | –
8 | CCCc1[nH]c2nc3ccccc3n2c(=O)c1CC [Compound 8] | > 10000 nM | -1% | 90.5 ± 7.03 nM | 25.8 nM | –
9 | CCCc1[nH]c2nc3ccccc3n2c(=O)c1CCC [Compound 9] | > 10000 nM | -1% | 69.7 ± 20.8 nM | 16.6 ± 10.9 nM | –
10 | CCc1c(C(C)C)[nH]c2nc3ccccc3n2c1=O [Compound 10] | > 10000 nM | -1% | 94.4 ± 63.8 nM | 0.895 nM | fold increase in potency compared to hit compound 1 [3]: 275 fold; MRGPRX2 antagonistic potency in Ca2+ assay, in words [3]: subnanomolar potencies
11 | CCCc1c(C(C)C)[nH]c2nc3ccccc3n2c1=O [Compound 11] | > 10000 nM | 1% | 166 ± 69.7 nM | 43.3 ± 24.5 nM | –
12 | CCc1c(CC(C)C)[nH]c2nc3ccccc3n2c1=O [Compound 12] | > 10000 nM | -2% | 152 ± 33.8 nM | 18.5 ± 13.7 nM | –
13 | CCc1c(C(C)(C)C)[nH]c2nc3ccccc3n2c1=O [Compound 13] | > 10000 nM | -1% | 113 ± 42.3 nM | 8.44 nM | –
14 | CCc1c(C2CC2)[nH]c2nc3ccccc3n2c1=O [Compound 14] | > 10000 nM | 0% | 384 ± 214 nM | 69.7 nM | –
15 | CCc1c(-c2ccccc2)[nH]c2nc3ccccc3n2c1=O [Compound 15] | > 10000 nM | 0% | 175 ± 49.5 nM | 364 nM | –
16 | CCc1c(-c2cccs2)[nH]c2nc3ccccc3n2c1=O [Compound 16] | > 10000 nM | -2% | – | – | –
17 | Cc1cc(=S)n2c(nc3ccccc32)[nH]1 [Compound 17] | > 10000 nM | -3% | – | – | –
18 | CC(C)c1cc(=S)n2c(nc3ccccc32)[nH]1 [Compound 18] | > 10000 nM | -1% | 48.2 ± 1.08 nM | 1.42 nM | fold increase in potency compared to 7 [3]: ~3000 fold
19 | CSc1cc(C(C)C)nc2nc3ccccc3n12 [Compound 19] | > 10000 nM | -1% | – | – | MRGPRX2 antagonistic potency in Ca2+ assay, in words [3]: completely inactive
20 | CCc1c(C)n(C)c2nc3ccccc3n2c1=O [Compound 20] | > 10000 nM | 1% | – | – | MRGPRX2 antagonistic potency in Ca2+ assay, in words [3]: not tolerated
21 | CC(C)c1cc(=O)n2c3ccccc3n(C)c2n1 [Compound 21] | > 10000 nM | -1% | – | – | MRGPRX2 antagonistic potency in Ca2+ assay, in words [3]: not tolerated
22 | Cc1cc(=O)n2c(n1)oc1ccccc12 [Compound 22] | > 10000 nM | 0% | – | – | MRGPRX2 antagonistic potency in Ca2+ assay, in words [3]: inactive
23 | Cc1cc(=O)n2c(n1)sc1ccccc12 [Compound 23] | > 10000 nM | -1% | – | – | MRGPRX2 antagonistic potency in Ca2+ assay, in words [3]: inactive
24 | CCc1c(C(C)C)[nH]c2nc3cc(Cl)c(Cl)cc3n2c1=O [Compound 25] | > 10000 nM | 1% | 155 ± 56.6 nM | 2.98 nM | –
25 | CCc1c(C(C)C)[nH]c2nc3cc(Br)c(Br)cc3n2c1=O [Compound 26] | > 10000 nM | -1% | 289 ± 119 nM | 13.3 nM | –
26 | CCc1c(C(C)C)[nH]c2nc3ccc(C)cc3n2c1=O [Compound 28] | > 10000 nM | -3% | 47.8 ± 9.77 nM | 0.322 nM | fold improved potency compared to 27 [3]: 20 fold; MRGPRX2 antagonistic potency in Ca2+ assay, in words [3]: subnanomolar potencies
27 | CCc1c(C(C)C)[nH]c2nc3c(C)cccc3n2c1=O [Compound 31] | > 10000 nM | 1% | – | – | MRGPRX2 antagonistic potency in Ca2+ assay, in words [3]: abolished antagonistic activity
28 | CN(C)CCCN1c2ccccc2CCc2ccc(Cl)cc21 [clomipramine, reference compound] | – | – | – | – | EC80 of agonist, β-arrestin assay [1]: 13000 nM
